Results taken from patent US20240368191A1, “HETEROCYCLIC COMPOUNDS AND USES THEREOF” (Kumquat Biosciences Inc., priority 2021, published 2024).

How the values were obtained:
[1] = biological target: T1, KRAS G12D 1-169 (His-tagged, GDP-loaded) (Homo sapiens, UniProt P01116, G12D); test: Covalent modification of KRAS protein by intact-protein LC-MS; assay type: binding; settings: comparable or same conditions as K-Ras G12S
T1 construct: His -tagged GDP-loaded G12D 1-169; made in house; host or cells: E. coli, e.g. BL21 (DE3)
T1 sequence (P01116 1-169 isoform P01116-2 G12D): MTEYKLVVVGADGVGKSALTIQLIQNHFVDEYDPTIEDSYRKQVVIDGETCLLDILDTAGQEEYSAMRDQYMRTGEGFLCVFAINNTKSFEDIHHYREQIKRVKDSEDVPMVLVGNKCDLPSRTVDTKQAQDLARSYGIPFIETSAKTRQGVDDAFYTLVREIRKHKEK
Experimental: Test compounds are prepared as 10 mM stock solutions in DMSO (Fisher cat #BP231-100). KRAS protein (His -tagged GDP-loaded wildtype 1-169, His -tagged GDP-loaded G12S 1-169 or His -tagged GDP-loaded G12D 1-169) is diluted to ˜2 μM in appropriate buffer (e.g., a Hepes buffer at physiological conditions). For testing KRAS modification, compounds are diluted to 50× final test concentration in DMSO in 96-well storage plates. 2 μl of the diluted 50× compounds are added to appropriate wells in the PCR plate (Fisher cat #AB-0800). ˜49 μl of the stock protein solution is added to each well of the 96-well PCR plate. Reactions are mixed carefully. The plate is sealed well with aluminum plate seal, and stored in drawer at room temperature for 24 hrs. 5 μl of 2% formic acid (Fisher cat #A117-50) in MilliQ H2O is then added to each well followed by mixing with a pipette. The plate is then resealed with aluminum seal and stored until mass spectrometry analysis.
The extent of covalent modification of KRAS proteins was determined by liquid chromatography electrospray mass spectrometry analysis of the intact proteins on a Thermo Q-Exactive Plus mass spectrometer. 20 μl of sample was injected onto a bioZen 3.6 μm Intact C4 column (Phenomenex cat #00B-4767-AN) placed in a column oven set to 40° C. and separated using a suitable LC gradient from ˜20% to ˜60% solvent B. Solvent A was 0.1% formic acid and solvent B was 0.1% formic acid in acetonitrile. HESI source settings were set to 40, 5 and 1 for the sheath, auxiliary and sweep gas flow, respectively. The spray voltage was 4 kV, and the capillary temperature was 320° C. S-lens RF level was 50 and auxiliary gas heater temperature was set to 200° C. The mass spectrometry was acquired using a scan range from 650 to 1750 m/z using positive polarity at a mass resolution of 70,000, AGC target of 1e6 ions and maximum injection time of 250 ms. The recorded protein mass spectrum was deconvoluted from the raw data file using Protein Deconvolution v4.0 (Thermo). The protein mass and adduct masses were exported with their peak intensities. The peak intensities for the unmodified and modified protein were used to calculate the percent covalent modification of the KRAS protein based on the following equation: % KRAS protein modification=((KRAS−compound)/(KRAS)+(KRAS−Compound))*100.

[2] = Metabolic (microsomal) stability assay; settings: pooled liver microsomes, pH 7.4
in vitro = settings: microsomes, pH 7.4

Structure (SMILES) | covalent labeling of K-Ras G12D [1] | half-life at 0.5 μM [2] [min] | half-life at 0.5 μM (in vitro) [min]
Cc1ncn(C(=O)N2CC3(CCCN(c4nc(OC[C@@]56CCCN5C[C@H](F)C6)nc5c(F)c(-c6ccc(F)c7sc(N)c(C#N)c67)c(Cl)cc45)C3)C2)n1 [Compound A102, 2-amino-4-(6-chloro-8-fluoro-2-(((2R,7aS)-2-fluorotetrahydro-1H-pyrrolizin-7a(5H)-yl)meth-oxy)-4-(2-(3-methyl-1H-1,2,4-triazole-1-carbonyl)-2,6-diaza-spiro[3.5]nonan-6-yl)quinazo-lin-7-yl)-7-fluorobenzo[b]-thiophene-3-carbonitrile] | essentially no detectable labeling | > 10 | –
N#Cc1c(N)sc2c(F)ccc(-c3c(Cl)cc4c(N5CC6CCC(C5)N6C(=O)n5ccnc5)nc(OC[C@@]56CCCN5C[C@H](F)C6)nc4c3F)c12 [Compound A105, 4-(4-(8-(1H-imidazole-1-carbonyl)-3,8-diazabicyclo-[3.2.1]octan-3-yl)-6-chloro-8-fluoro-2-(((2R,7aS)-2-fluoro-tetrahydro-1H-pyrrolizin-7a(5H)-yl)methoxy)quinazolin-7-yl)-2-amino-7-fluorobenzo-[b]thiophene-3-carbonitrile] | – | – | > 10
Nc1nc2c(-c3c(Cl)cc4c(N5CC6CCC(C5)N6C(=O)n5cncn5)nc(OC[C@@]56CCCN5C[C@H](F)C6)nc4c3F)ccc(F)c2s1 [Compound A111, (3-(7-(2-amino-7-fluorobenzo-[d]thiazol-4-yl)-6-chloro-8-fluoro-2-(((2R,7aS)-2-fluoro-tetrahydro-1H-pyrrolizin-7a(5H)-yl)methoxy)quinazolin-4-yl)-3,8-diazabicyclo[3.2.1]-octan-8-yl)(1H-1,2,4-triazol-1-yl)methanone] | – | – | > 10
N#Cc1c(N)sc2c(F)ccc(-c3c(Cl)cc4c(N5CC6CCC(C5)N6C(=O)n5cc(C(F)(F)F)cn5)nc(OC[C@@]56CCCN5C[C@H](F)C6)nc4c3F)c12 [Compound A122, 2-amino-4-(6-chloro-8-fluoro-2-(((2R,7aS)-2-fluorotetrahydro-1H-pyrrolizin-7a(5H)-yl)meth-oxy)-4-(8-(4-(trifluoromethyl)-1H-pyrazole-1-carbonyl)-3,8-diazabicyclo[3.2.1]octan-3-yl)-quinazolin-7-yl)-7-fluorobenzo-[b]thiophene-3-carbonitrile] | – | – | > 10
Cc1ncn(C(=O)N2CC3(C2)CN(c2nc(OC[C@@]45CCCN4C[C@H](F)C5)nc4c(F)c(-c5ccc(F)c6sc(N)c(C#N)c56)c(Cl)cc24)CCO3)n1 [Compound A148, 2-amino-4-(6-chloro-8-fluoro-2-(((2R,7aS)-2-fluorotetrahydro-1H-pyrrolizin-7a(5H)-yl)-methoxy)-4-(2-(3-methyl-1H-1,2,4-triazole-1-carbonyl)-5-oxa-2,8-diazaspiro[3.5]nonan-8-yl)quinazolin-7-yl)-7-fluoro-benzo[b]thiophene-3-carbonitrile] | essentially no detectable labeling | > 10 | –
CN1CCC[C@H]1COc1nc(N2CCOC3(CN(C(=O)n4cncn4)C3)C2)c2cc(Cl)c(-c3ccc(F)c4sc(N)c(C#N)c34)c(F)c2n1 [Compound A182, 4-(4-(2-(1H-1,2,4-triazole-1-carbonyl)-5-oxa-2,8-diazaspiro-[3.5]nonan-8-yl)-6-chloro-8-fluoro-2-(((S)-1-methylpyrrol-idin-2-yl)methoxy)quinazolin-7-yl)-2-amino-7-fluorobenzo-[b]thiophene-3-carbonitrile] | essentially no detectable labeling | > 10 | –
N#Cc1c(N)sc2c(F)ccc(-c3c(Cl)cc4c(O[C@@H]5CCN(C(=O)n6cncn6)C5)nc(OCC56CCCN5C[C@H](F)C6)nc4c3F)c12 (stereo partly drawn) [Compound A213, 4-(4-(((R)-1-(1H-1,2,4-triazole-1-carbonyl)pyrrolidin-3-yl)oxy)-6-chloro-8-fluoro-2-(((2R)-2-fluorotetrahydro-1H-pyrrolizin-7a(5H)-yl)methoxy)quinazolin-7-yl)-2-amino-7-fluorobenzo-[b]thiophene-3-carbonitrile] | essentially no detectable labeling | > 10 | –
C[C@H](Oc1nc(N2CCCCC3(CN(C(=O)n4cncn4)C3)C2)c2cc(Cl)c(-c3ccc(F)c4sc(N)c(C#N)c34)c(F)c2n1)[C@@H]1CCCN1C [Compound A219, 4-(4-(2-(1H-1,2,4-triazole-1-carbonyl)-2,6-diazaspiro[3.6]-decan-6-yl)-6-chloro-8-fluoro-2-((S)-1-((S)-1-methylpyrrol-idin-2-yl)ethoxy)quinazolin-7-yl)-2-amino-7-fluorobenzo-[b]thiophene-3-carbonitrile] | essentially no detectable labeling | > 10 | –
Nc1nc2c(-c3c(Cl)cc4c(N5CCOC6(CCN(C(=O)n7cncn7)C6)C5)nc(OC[C@@]56CCCN5C[C@H](F)C6)nc4c3F)ccc(F)c2s1 (stereo partly drawn) [Compound A221, (9-(7-(2-amino-7-fluorobenzo-[d]thiazol-4-yl)-6-chloro-8-fluoro-2-(((2R,7aS)-2-fluoro-tetrahydro-1H-pyrrolizin-7a(5H)-yl)methoxy)quinazolin-4-yl)-6-oxa-2,9-diazaspiro[4.5]-decan-2-yl)(1H-1,2,4-triazol-1-yl)methanone] | essentially no detectable labeling | > 10 | –
CN(C)C1CN(c2nc(N3CCOC4(CN(C(=O)n5cncn5)C4)C3)c3cc(Cl)c(-c4ccc(F)c5sc(N)c(C#N)c45)c(F)c3n2)C1 [Compound A256, 4-(4-(2-(1H-1,2,4-triazole-1-carbonyl)-5-oxa-2,8-diazaspiro[3.5]nonan-8-yl)-6-chloro-2-(3-(dimethylamino)azetidin-1-yl)-8-fluoroquinazolin-7-yl)-2-amino-7-fluorobenzo[b]thiophene-3-carbonitrile] | essentially no detectable labeling | > 10 | –
Nc1nc2c(-c3c(Cl)cc4c(N5CCC56CCN(C(=O)n5cncn5)CC6)nc(OC[C@@]56CCCN5C[C@H](F)C6)nc4c3F)ccc(F)c2s1 [Compound A288, (1-(7-(2-amino-7-fluorobenzo-[d]thiazol-4-yl)-6-chloro-8-fluoro-2-(((2R,7aS)-2-fluoro-tetrahydro-1H-pyrrolizin-7a(5H)-yl)methoxy)quinazolin-4-yl)-1,7-diazaspiro[3.5]nonan-7-yl)(1H-1,2,4-triazol-1-yl)-methanone] | – | > 10 | –
CC1(C)CN(c2nc(OC[C@@]34CCCN3C[C@H](F)C4)nc3c(F)c(-c4ccc(F)c5sc(N)c(C#N)c45)c(Cl)cc23)CC2(CN(C(=O)n3cncn3)C2)O1 [Compound A296, 2-amino-4-(6-chloro-4-(6,6-dimethyl-2-(1H-1,2,4-triazole-1-carbonyl)-5-oxa-2,8-diaza-spiro[3.5]nonan-8-yl)-8-fluoro-2-(((2R,7aS)-2-fluorotetrahydro-1H-pyrrolizin-7a(5H)-yl)meth-oxy)quinazolin-7-yl)-7-fluoro-benzo[b]thiophene-3-carbonitrile] | essentially no detectable labeling | > 10 | –
